Columns and labels:
[1] = biological target: T1, IDO1 (Homo sapiens (Human), UniProt P14902); assay: IDO1 Cellular Assay in Frozen HEK293 Cells Transiently Transfected with Human IDO1; assay type: cell-based; conditions: HEK293 cells transiently transfected with human IDO1; read-out: IDO1 HEK293 Cell Assay, IC50
[2] = biological target: T1, IDO1; assay: IDO1 Human Whole Blood Assay; assay type: cell-based; conditions: LPS and IFNγ 100 ng/mL, kynurenine by LC/MS/MS
Method: IDO1 Human Whole Blood Assay
LPS and IFNγ was prepared in RPMI to a 10× of final conc. (1000 ng/mL), final concentration is 100 ng/mL.
Human whole blood was drawn in sodium heparin coated tubes from healthy internal donors. Two hundred fourty μL of blood was transferred to each of the wells of a v-bottom 96 well plate. Thirty μL of compound was transferred from intermediate dilution plate, and incubated for 15 min. […] from stimulants was then transferred to blood and mixed thoroughly. Plate was covered with breathable membrane and incubated at 37° C. for overnight (18 h).
On day 2 isotope labeled standard of kunurenine and tryptophan was made in water at 10× concentration and 30 μL was added to the blood at 3 μM final concentration. The assay plates were centrifuged at 300×G for 10 min with no brake to separate plasma from red blood cells. Sixty μL of plasma samples was removed without disturbing red blood cells. Plasma was diluted with RPMI in 1:1 ratio and proteins were precipitated out with two volume of Acetonitrile. The plates was centrifuged at 4000×G for 60 min. Twenty μL of supernatant was carefully transferred to a 384 well plate contain 40 μL of 0.1% formic acid in water and analysed by LC/MS/MS.
LC/MS/MS analyses were performed using Thermo Fisher's LX4-TSQ Quantum Ultra system. This system consists of four Agilent binary high-performance liquid chromatography (HPLC) pumps and a TSQ Quantum Ultra triple quadrupole MS/MS instrument. For each sample, 5 μL were injected onto an Atlantis T3 column column (2.1 mm×150 mm, 3 μm particle size) from Waters. The mobile phase gradient pumped at 0.8 mL/min was used to elute the analytes from the column at 25° C. The elution started at 0% B increasing linearly to 25% B at 6.5 min, holding at 25% for 1 min, re-equilibrating to 10 min. Mobile phase A consisted of 0.1% formic acid in water. Mobile phase B consisted of 0.1% of formic acid in acetonitrile. Data was acquired in positive mode using a HESI interface. The operational parameters for the TSQ Quantum Ultra instrument were a spray voltage of 4000 V, capillary temperature of 380° C., vaporizer temperature 400° C., shealth gas 60 arbitrary units, Aux gas 20 arbitrary units, tube lens 85 and collision gas 1.2 mTorr. SRM chromatograms of kynurenine (Q1: 209.2>Q3:94.0) and internal standard (Q1: 215.3>Q3:98.2) were collected for 90 sec. The peak area was integrated by Xcalibur Quan software. The ratios between the kynurenine generated in the reaction and 2D6-Kynurenine spiked-in internal standard were used to generate percentage inhibition and IC50 values. Compounds were titrated and IC50's were calculated by 4 parameter sigmoidal curve fitting formula.

T1 sequence (P14902 whole entry): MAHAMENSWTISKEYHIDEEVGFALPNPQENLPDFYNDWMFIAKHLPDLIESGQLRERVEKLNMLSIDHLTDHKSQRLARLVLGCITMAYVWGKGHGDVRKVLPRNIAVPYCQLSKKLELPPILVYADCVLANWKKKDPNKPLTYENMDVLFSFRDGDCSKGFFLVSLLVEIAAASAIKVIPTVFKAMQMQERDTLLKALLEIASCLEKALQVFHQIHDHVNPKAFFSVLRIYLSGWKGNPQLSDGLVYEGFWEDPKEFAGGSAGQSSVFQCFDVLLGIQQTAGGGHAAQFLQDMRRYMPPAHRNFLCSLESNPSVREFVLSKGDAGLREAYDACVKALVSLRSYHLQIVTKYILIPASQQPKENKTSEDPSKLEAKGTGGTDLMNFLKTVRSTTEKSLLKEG

| SMILES | IC50 [1] | IC50 [2] |
| --- | --- | --- |
| O=C(CSc1nonc1/C(=N/O)Nc1ccc(F)c(Br)c1)NC[C@@H](O)CO [Example 42, (R)-2-((4-(N-(3-bromo-4-fluorophenyl)-N′-hydroxycarbamimidoyl)-1,2,5-oxadiazol-3-yl)thio)-N-(2,3-dihydroxypropyl)acetamide] | 59.6 nM | 519 nM |
| NC(=O)NCCSc1nonc1/C(=N/O)Nc1ccc(F)c(Br)c1 [Example 46, N-(3-Bromo-4-fluorophenyl)-N′-hydroxy-4-((2-ureidoethyl)thio)-1,2,5-oxadiazole-3-carboximidamide] | 16.9 nM | 239 nM |

From patent publication US10538497B2, “Compounds as indoleamine 2,3-dioxygenase inhibitors” (Merck Sharp & Dohme Corp., priority 2015, dated 2020)
